Data: ChEMBL document CHEMBL1909046, “DrugMatrix in vitro pharmacology data”
pIC50, pKi: −log10 of the molar value.

Assays:
[1] = target: T1, Endothelin-1 receptor (Homo sapiens, UniProt P25101); format: cell membranes, Membrane; details: cho-k1; note: in other assays of this panel Not Active means under 50% inhibition at 10 µM
T1 sequence (P25101 whole entry): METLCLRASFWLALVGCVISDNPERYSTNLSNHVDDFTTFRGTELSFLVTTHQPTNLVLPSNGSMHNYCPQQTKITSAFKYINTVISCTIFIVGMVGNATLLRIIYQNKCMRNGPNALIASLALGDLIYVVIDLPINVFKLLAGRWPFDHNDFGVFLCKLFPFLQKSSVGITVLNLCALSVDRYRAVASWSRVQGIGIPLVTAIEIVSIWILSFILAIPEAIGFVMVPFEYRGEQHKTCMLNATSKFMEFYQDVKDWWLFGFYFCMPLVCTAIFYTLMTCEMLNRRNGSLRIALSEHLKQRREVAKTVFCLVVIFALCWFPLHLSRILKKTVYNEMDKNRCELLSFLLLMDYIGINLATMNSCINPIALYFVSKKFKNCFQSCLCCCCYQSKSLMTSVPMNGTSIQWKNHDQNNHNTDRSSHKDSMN

[2] = target: T2, 3-hydroxy-3-methylglutaryl-coenzyme A reductase (Homo sapiens, UniProt P04035); parameters: species or system Escherichia coli;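 note: enzyme inhibition assay of HMG-CoA reductase using radiolabeled [14C]HMG-CoA as substrate; in other assays of this panel Not Active means under 50% inhibition at 10 µM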
T2 sequence (P04035 whole entry): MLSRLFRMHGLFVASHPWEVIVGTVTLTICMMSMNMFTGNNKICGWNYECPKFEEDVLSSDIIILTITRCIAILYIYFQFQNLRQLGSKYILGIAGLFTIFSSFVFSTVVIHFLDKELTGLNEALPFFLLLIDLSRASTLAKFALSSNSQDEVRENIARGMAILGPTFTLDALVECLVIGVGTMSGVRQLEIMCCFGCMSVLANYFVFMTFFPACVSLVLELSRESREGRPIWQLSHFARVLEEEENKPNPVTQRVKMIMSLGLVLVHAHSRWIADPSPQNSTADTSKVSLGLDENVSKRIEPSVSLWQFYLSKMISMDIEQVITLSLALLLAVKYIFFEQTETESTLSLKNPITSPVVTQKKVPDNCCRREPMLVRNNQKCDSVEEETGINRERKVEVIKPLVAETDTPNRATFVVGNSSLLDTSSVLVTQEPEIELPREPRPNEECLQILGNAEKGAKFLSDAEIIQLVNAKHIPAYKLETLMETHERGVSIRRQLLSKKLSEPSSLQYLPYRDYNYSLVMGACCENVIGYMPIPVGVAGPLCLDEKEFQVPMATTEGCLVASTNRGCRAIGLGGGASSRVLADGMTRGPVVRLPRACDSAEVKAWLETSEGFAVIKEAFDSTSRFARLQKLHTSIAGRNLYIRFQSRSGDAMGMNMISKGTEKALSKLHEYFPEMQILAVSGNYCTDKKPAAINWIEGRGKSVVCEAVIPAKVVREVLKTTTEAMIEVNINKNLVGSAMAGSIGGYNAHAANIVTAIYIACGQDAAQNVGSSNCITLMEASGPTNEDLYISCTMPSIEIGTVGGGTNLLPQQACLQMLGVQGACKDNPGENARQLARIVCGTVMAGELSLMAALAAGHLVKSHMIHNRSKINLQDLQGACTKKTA

[3] = DRUGMATRIX: Imidazoline I2, Central radioligand binding (ligand: [3H] Idazoxan); format: cell membranes, Rattus norvegicus, Wistar, Cerebral cortex, Membrane; details: Not Active = under 50% inhibition at 10 µM
[4] = target: T3, Cysteinyl leukotriene receptor 1 (Homo sapiens, UniProt Q9Y271); format: cell membranes, CHO-K1, Membrane; details: for IC50: cho-k1; for all read-outs here: in other assays of this panel Not Active means under 50% inhibition at 10 µM
T3 sequence (Q9Y271 whole entry): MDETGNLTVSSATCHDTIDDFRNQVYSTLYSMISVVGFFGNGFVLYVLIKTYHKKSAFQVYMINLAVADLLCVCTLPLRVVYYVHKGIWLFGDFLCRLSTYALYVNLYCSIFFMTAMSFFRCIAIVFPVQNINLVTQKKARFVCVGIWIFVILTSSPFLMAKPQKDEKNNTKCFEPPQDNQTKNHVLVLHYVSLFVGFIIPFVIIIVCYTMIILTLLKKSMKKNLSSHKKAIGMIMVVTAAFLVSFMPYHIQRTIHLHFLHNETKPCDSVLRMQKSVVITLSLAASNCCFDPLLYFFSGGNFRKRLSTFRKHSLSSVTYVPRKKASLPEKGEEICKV

[5] = target: T4, Interstitial collagenase (Homo sapiens, UniProt P03956); format: tissue-based, Rheumatoid synovial fibroblasts;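 note: MMP-1 enzyme inhibition assay using a peptide substrate; in other assays of this panel Not Active means under 50% inhibition at 10 µM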
T4 sequence (P03956 whole entry): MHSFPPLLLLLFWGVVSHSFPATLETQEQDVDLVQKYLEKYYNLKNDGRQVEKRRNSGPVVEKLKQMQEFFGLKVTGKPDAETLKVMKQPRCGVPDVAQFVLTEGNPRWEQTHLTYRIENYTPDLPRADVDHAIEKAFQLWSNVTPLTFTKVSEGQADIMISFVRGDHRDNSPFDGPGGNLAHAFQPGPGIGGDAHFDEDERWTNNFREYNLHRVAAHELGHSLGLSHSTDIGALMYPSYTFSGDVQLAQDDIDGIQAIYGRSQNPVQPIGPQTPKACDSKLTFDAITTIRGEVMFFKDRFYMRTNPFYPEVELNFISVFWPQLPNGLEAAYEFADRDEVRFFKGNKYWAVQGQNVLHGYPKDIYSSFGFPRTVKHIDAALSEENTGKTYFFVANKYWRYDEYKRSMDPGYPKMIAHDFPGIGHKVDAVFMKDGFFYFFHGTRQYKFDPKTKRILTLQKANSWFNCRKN

[6] = target: Protein phosphatase 3 catalytic subunit alpha (Homo sapiens, UniProt Q08209); parameters: species or system Escherichia coli
[7] = target: T5, Cytochrome P450 2A6 (Homo sapiens, UniProt P11509); details: bti-tn-5b1-4; note: in other assays of this panel Not Active means under 50% inhibition at 10 µM
T5 sequence (P11509 whole entry): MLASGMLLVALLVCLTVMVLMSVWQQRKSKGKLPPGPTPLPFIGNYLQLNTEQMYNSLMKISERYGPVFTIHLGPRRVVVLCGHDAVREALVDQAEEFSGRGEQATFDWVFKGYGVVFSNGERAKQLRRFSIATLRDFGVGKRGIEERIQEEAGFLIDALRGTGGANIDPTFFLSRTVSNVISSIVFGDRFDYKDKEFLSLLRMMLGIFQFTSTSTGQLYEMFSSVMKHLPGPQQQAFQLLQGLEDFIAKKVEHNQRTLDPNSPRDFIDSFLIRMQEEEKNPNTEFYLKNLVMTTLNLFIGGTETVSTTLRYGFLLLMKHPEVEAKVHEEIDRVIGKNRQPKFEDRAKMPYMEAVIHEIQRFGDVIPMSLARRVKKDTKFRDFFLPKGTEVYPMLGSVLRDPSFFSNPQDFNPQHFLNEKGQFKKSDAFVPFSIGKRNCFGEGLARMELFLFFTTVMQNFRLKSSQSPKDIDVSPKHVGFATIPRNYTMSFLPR

CCOC(=O)[C@H](CCc1ccccc1)N[C@@H](C)C(=O)N1[C@H](C(=O)O)C[C@@H]2CCC[C@@H]21
IC50 [1]: Not Active
IC50 [2]: Not Active
IC50 [3]: Not Active
Ki [3]: Not Active
IC50 [4]: Not Active
IC50 [5]: Not Active
IC50 [6]: Not Active
IC50 [7]: Not Active
Ki [7]: Not Active

CC(C)(C)NC(=O)[C@@H]1CN(Cc2cccnc2)CCN1C[C@@H](O)C[C@@H](Cc1ccccc1)C(=O)N[C@H]1c2ccccc2C[C@H]1O.O
IC50 [1]: Not Active
IC50 [2]: Not Active
IC50 [3]: Not Active
Ki [3]: Not Active
IC50 [4]: Not Active
IC50 [5]: Not Active
IC50 [6]: Not Active
IC50 [7]: Not Active
Ki [7]: Not Active

CC1(C)[C@H]2CC[C@]1(C)C(=O)C2 [(-)-CAMPHOR]
IC50 [1]: Not Active
IC50 [2]: Not Active
IC50 [3]: Not Active
Ki [3]: Not Active
IC50 [4]: Not Active
IC50 [5]: Not Active
IC50 [6]: Not Active
IC50 [7]: Not Active
Ki [7]: Not Active

CC(C)(C)NCC(O)c1ccc(O)c(CO)c1 (stereo not given) [ALBUTEROL]
IC50 [1]: Not Active
IC50 [2]: Not Active
IC50 [3]: Not Active
Ki [3]: Not Active
IC50 [4]: Not Active
IC50 [5]: Not Active
IC50 [6]: Not Active
IC50 [7]: Not Active
Ki [7]: Not Active

COc1ccc(CCN2CCC(Nc3nc4ccccc4n3Cc3ccc(F)cc3)CC2)cc1 [ASTEMIZOLE]
IC50 [1]: Not Active
IC50 [2]: Not Active
IC50 [4]: Not Active
IC50 [5]: Not Active
IC50 [6]: Not Active
IC50 [7]: Not Active
Ki [7]: Not Active

CN(C)CCCN1c2ccccc2CCc2ccc(Cl)cc21 [CLOMIPRAMINE]
IC50 [1]: Not Active
IC50 [2]: Not Active
IC50 [4]: Not Active
IC50 [5]: Not Active
IC50 [6]: Not Active
IC50 [7]: Not Active
Ki [7]: Not Active

Clc1ccccc1C(c1ccccc1)(c1ccccc1)n1ccnc1 [CLOTRIMAZOLE]
IC50 [1]: Not Active
IC50 [2]: Not Active
pIC50 ([4]; read-out: IC50): 4.48
pKi ([4]; read-out: Ki): 4.78
IC50 [5]: Not Active
IC50 [6]: Not Active
IC50 [7]: Not Active
Ki [7]: Not Active

O=C(CCCN1CCC(O)(c2ccc(Cl)cc2)CC1)c1ccc(F)cc1 [HALOPERIDOL]
IC50 [1]: Not Active
IC50 [2]: Not Active
IC50 [4]: Not Active
IC50 [5]: Not Active
IC50 [6]: Not Active
IC50 [7]: Not Active
Ki [7]: Not Active

CN1CCN2c3ccccc3Cc3ccccc3C2C1 (stereo not given) [MIANSERIN]
IC50 [1]: Not Active
IC50 [2]: Not Active
IC50 [4]: Not Active
IC50 [5]: Not Active
IC50 [6]: Not Active
IC50 [7]: Not Active
Ki [7]: Not Active

O=C1c2c(O)ccc(O)c2C(=O)c2c(NCCNCCO)ccc(NCCNCCO)c21 [MITOXANTRONE]
IC50 [1]: Not Active
IC50 [2]: Not Active
IC50 [3]: Not Active
Ki [3]: Not Active
IC50 [4]: Not Active
IC50 [5]: Not Active
IC50 [6]: Not Active

CC(C)(O)c1ccccc1CC[C@@H](SCC1(CC(=O)O)CC1)c1cccc(/C=C/c2ccc3ccc(Cl)cc3n2)c1 [MONTELUKAST]
IC50 [1]: Not Active
IC50 [2]: Not Active
IC50 [5]: Not Active
IC50 [6]: Not Active
IC50 [7]: Not Active
Ki [7]: Not Active

COC(=O)C1=C(C)NC(C)=C(C(=O)OC)C1c1ccccc1[N+](=O)[O-] [NIFEDIPINE]
IC50 [1]: Not Active
IC50 [2]: Not Active
IC50 [3]: Not Active
Ki [3]: Not Active
IC50 [4]: Not Active
IC50 [5]: Not Active
IC50 [6]: Not Active

CN[C@@H]1[C@@H](O)[C@@H](O[C@@H]2[C@@H](O)[C@H](O[C@H]3OC(CN)=CC[C@H]3N)[C@@H](N)C[C@H]2N)OC[C@]1(C)O [SISOMICIN]
IC50 [1]: Not Active
IC50 [2]: Not Active
IC50 [3]: Not Active
Ki [3]: Not Active
IC50 [4]: Not Active
IC50 [5]: Not Active
IC50 [6]: Not Active

CSc1ccc2c(c1)N(CCC1CCCCN1C)c1ccccc1S2 (stereo not given) [THIORIDAZINE]
IC50 [1]: Not Active
IC50 [2]: Not Active
IC50 [4]: Not Active
IC50 [5]: Not Active
IC50 [6]: Not Active
IC50 [7]: Not Active
Ki [7]: Not Active

COc1cccc(C2(O)CCCCC2CN(C)C)c1 (stereo not given) [TRAMADOL]
IC50 [1]: Not Active
IC50 [2]: Not Active
IC50 [4]: Not Active
IC50 [5]: Not Active
IC50 [6]: Not Active
IC50 [7]: Not Active
Ki [7]: Not Active

COC(=O)[C@@H]1[C@H]2C[C@H]3c4[nH]c5ccccc5c4CCN3C[C@@H]2CC[C@@H]1O [YOHIMBINE]
IC50 [1]: Not Active
IC50 [2]: Not Active
pIC50 ([3]; read-out: IC50): 6.80
pKi ([3]; read-out: Ki): 6.98
IC50 [4]: Not Active
IC50 [5]: Not Active
IC50 [6]: Not Active
